US20120214847A1, “2-[1-PHENYL-5-HYDROXY-4a-SUBSTITUTED-HEXAHYDROCYCLOPENTA[F]INDAZOL-5-YL]ETHYL PHENYL DERIVATIVES AS GLUCOCORTICOID RECEPTOR LIGANDS” (Merck Sharp & Dohme Corp., priority 2009, published 2012)

Target: T1, human GR (Homo sapiens, UniProt P04150)
T1 construct: naturally expresses the human GR; endogenous in cells
T1 sequence (P04150 1-777): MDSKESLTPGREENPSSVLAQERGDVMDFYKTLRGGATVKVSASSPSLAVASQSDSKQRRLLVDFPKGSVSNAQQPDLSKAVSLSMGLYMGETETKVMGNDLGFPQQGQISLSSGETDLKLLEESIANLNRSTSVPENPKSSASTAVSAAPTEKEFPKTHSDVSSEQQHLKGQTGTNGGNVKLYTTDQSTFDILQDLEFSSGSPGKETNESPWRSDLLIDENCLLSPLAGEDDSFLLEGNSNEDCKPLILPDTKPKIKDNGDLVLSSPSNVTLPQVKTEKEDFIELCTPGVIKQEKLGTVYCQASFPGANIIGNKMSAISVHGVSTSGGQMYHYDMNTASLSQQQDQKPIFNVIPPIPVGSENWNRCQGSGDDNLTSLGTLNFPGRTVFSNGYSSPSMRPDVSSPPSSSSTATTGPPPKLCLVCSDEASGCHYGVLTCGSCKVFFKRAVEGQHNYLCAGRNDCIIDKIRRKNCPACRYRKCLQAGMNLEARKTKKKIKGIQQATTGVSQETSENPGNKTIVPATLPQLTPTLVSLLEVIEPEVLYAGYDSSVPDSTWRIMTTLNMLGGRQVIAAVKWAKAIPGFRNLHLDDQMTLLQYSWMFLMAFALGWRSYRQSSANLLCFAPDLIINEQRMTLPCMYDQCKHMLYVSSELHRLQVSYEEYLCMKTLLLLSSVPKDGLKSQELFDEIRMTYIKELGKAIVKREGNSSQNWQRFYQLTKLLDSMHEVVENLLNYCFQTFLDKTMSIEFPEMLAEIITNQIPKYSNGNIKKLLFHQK
Experiment: Transrepression assay (GITAR), TNFα-β-lactamase reporter in U937 cells
Assay type: cell-based
Conditions: for EC50: IP = inflection point; for Emax: U-937, U937 cells
How it was run: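 U937 cells stably carrying TNFα promoter–β-lactamase, endogenous GR, preincubated with compound 30–45 min at 37° C., then stimulated with 5 ng/ml PMA plus 100 ng/ml LPS for ~18 h. CCF2-AM read-out; repression by 100 nM dexamethasone set as 100%.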

[1] = activity repressed by 100 nM dexamethasone alone set as 100%

EC50 (U937 cells) | Emax [1] | Transrepression U937 Cells GITAR Emax (%) (U937 cells, activity repressed by 100 nM dexamethasone alone set as 100%) | SMILES
275 nM | 64% | – | CC[C@]12Cc3cnn(-c4ccc(F)cc4)c3C=C1CC[C@@]2(O)CC(O)c1ncccc1F (stereo partly drawn) [Example 76, (4aS,5R)-4a-Ethyl-1-(4-fluorophenyl)-5-[2-(3-fluoropyridin-2-yl)-2-hydroxyethyl]-1,4,4a,5,6,7-hexahydrocyclopenta[f]indazol-5-ol]
162 nM | – | 60% | CC[C@]12Cc3cnn(-c4ccc(F)cc4)c3C=C1CC[C@@]2(O)CC(O)c1ncccc1F (stereo partly drawn) [Example 77, (4aS,5R)-4a-Ethyl-1-(4-fluorophenyl)-5-[2-(3-fluoropyridin-2-yl)-2-hydroxyethyl]-1,4,4a,5,6,7-hexahydrocyclopenta[f]indazol-5-ol]
213 nM | 49% | – | OC(C[C@]1(O)CCC2=Cc3c(cnn3-c3ccc(F)cc3)C[C@@]21C1CC1)c1ccccn1 (stereo partly drawn) [Example 78, (4aR,5R)-4a-Cyclopropyl-1-(4-fluorophenyl)-5-[2-hydroxy-2-(pyridin-2-yl)ethyl]-1,4,4a,5,6,7-hexahydrocyclopenta[f]indazol-5-ol]
